Laboratory results: publication PMC10622577, “Structural basis for stabilisation of the RAD51 nucleoprotein filament by BRCA2” (Nature Communications, 2023)

What was measured:
RAD51 D184A = assay: EMSA of BRC4 disruption of NPF formation, RAD51 D184A; format: binding, human; settings: BRC4 pre-mixed with RAD51 10 min, room temperature, before addition of ss- or dsDNA, performed once
Protocol: (§1) To test whether the acidic patch was also required for BRC4 binding to RAD51, we examined whether the interaction of a BRC4 peptide spanning BRCA2 amino acids 1514 to 1548 was impacted by the D184A and D184A, D187 mutations.
(§2) To assess RAD51 nucleoprotein (NPF) formation, wild-type and mutant RAD51 proteins were incubated with DNA in buffer: 25 mM HEPES pH 7.5, 150 mM NaCl, 2 mM DTT, 2 mM ATP, 5 mM CaCl2 for 15 minutes at room temperature. For filament binding of the TR2 peptide or His6-MBP-TR2 protein, the RAD51 NPFs were incubated with TR2 for further 5 minutes at room temperature. For filament binding of BRC4, the BRC4 peptide was pre-mixed with RAD51 for 10 minutes at room temperature before addition of DNA. For experiments with mono-streptavidin (mSA)-capped DNA, mSA (Sigma) was added in 5× molar excess of biotin labels for 15 minutes at room temperature prior to the addition of RAD51. Concentrations are provided in figures and DNA sequences for each experiment are reported in Supplementary Table 1.
(§3) Before electrophoresis, samples were mixed with a 0.5:1 volume of 50% (w/v) sucrose solution and analysed on a pre-run 0.5% (w/v) agarose gel in 0.5× TB buffer at 35 V for 2.5 hours at 4 °C. DNA was visualised by excitation of the fluorescent tag or, in the case of unlabelled DNA, by SYBR Gold staining. […]

RAD51 D184A, D187A NPF = assay: SPR of BRC4-induced disassembly of RAD51 D184A, D187A NPF; format: binding, human; settings: BRC4 0.1-15 μM, 120 s, CMA buffer pH 7.4, response minima, ss- and dsDNA, n = 3
Protocol: (§4) We investigated further the effect of the acidic patch mutations on TR2 binding using surface plasmon resonance (SPR). We developed an SPR assay whereby increasing amounts of TR2 peptide were added to RAD51 NPFs that had been assembled on biotinylated DNA coupled to a streptavidin chip (Supplementary Fig. 3A, Supplementary Table 1). […] We used the same SPR assay to assess the effect of the mutations on the ability of BRC4 to disrupt an established filament (Supplementary Fig. 4A, Supplementary Table 1).
(§5) All SPR experiments were performed using a Biacore T200 instrument and an S-series SA (Streptavidin) sensor chip. A single chip was used to immobilise biotinylated single- and double-stranded DNA in buffer: 25 mM HEPES pH 7.4, 100 mM NaCl, 1 mM EDTA. ssDNA and dsDNA were immobilised in different channels to a signal of 120 RU and 250 RU, respectively.
(§6) All binding experiments were performed in CMA buffer: 25 mM HEPES pH 7.4, 100 mM NaCl, 2 mM DTT, 2 mM ATP, 5 mM CaCl2, 5 mM MgCl2. 1 μM RAD51 (wild-type, D184A or D184A, D187A mutant proteins) was injected for 120 seconds followed by buffer for 120 seconds at a flow rate of 10 μl/min. TR2 or BRC4 peptides were then injected in a concentration titration series of 0.1, 0.25, 0.5, 0.75, 1, 2, 3, 5, 7.5, 10 and 15 μM for 120 seconds at a flow rate of […] followed by a dissociation time of 240 seconds. […]

RAD51 D184A NPF = assay: SPR of BRC4-induced disassembly of RAD51 D184A NPF; format: binding, human; settings: BRC4 0.1-15 μM, 120 s, CMA buffer pH 7.4, response minima, ss- and dsDNA, n = 3
Protocol: as §4, §5, §6

wild-type RAD51 NPF = assay: SPR of BRC4-induced disassembly of wild-type RAD51 NPF; format: binding, human; settings: BRC4 0.1-15 μM, 120 s, CMA buffer pH 7.4, response minima, ss- and dsDNA, n = 3
Protocol: as §4, §5, §6

RAD51 D184A, D187A = assay: EMSA of BRC4 disruption of NPF formation, RAD51 D184A, D187A; format: binding, human; settings: BRC4 pre-mixed with RAD51 10 min, room temperature, before addition of ss- or dsDNA, performed once
Protocol: as §1, §2, §3

RAD51;BRCA2 TR2 peptide [1] = biological target: T1, RAD51;BRCA2 TR2 peptide (Homo sapiens;Homo sapiens, UniProt Q06609;P51587 1-339;, |); assay: cryo-EM structure; mSA caps; EMSA: 25 mM HEPES pH 7.5, 150 mM NaCl, 2 mM DTT, 2 mM ATP, 5 mM CaCl2, room temperature; SPR: 25 mM HEPES pH 7.4, 100 mM NaCl, 2 mM DTT, 2 mM ATP, 5 mM CaCl2, 5 mM MgCl2; settings: tags: untagged (co-expressed with His6-MBP-BRC4, pMBP4-RAD51);; label: 5' and 3' biotin
RAD51;BRCA2 TR2 peptide [2] = biological target: T1, RAD51;BRCA2 TR2 peptide; assay: cryo-EM structure; mSA caps; no bundling; EMSA: 25 mM HEPES pH 7.5, 150 mM NaCl, 2 mM DTT, 2 mM ATP, 5 mM CaCl2, room temperature; SPR: 25 mM HEPES pH 7.4, 100 mM NaCl, 2 mM DTT, 2 mM ATP, 5 mM CaCl2, 5 mM MgCl2; settings: tags: untagged (co-expressed with His6-MBP-BRC4, pMBP4-RAD51);; label: 5' biotin on both strands; 3' Cy3 on strand 1; blunt ends, internal mismatched bubble about 10 nt

EKIKEPTLLGFHTASGKKVKIAKESLDKVKNLFDE [BRC4, BRC4 peptide spanning BRCA2 amino acids 1514 to 1548]
ability of BRC4 to disrupt RAD51 NPF formation (RAD51 D184A): moderately reduced | disassembly of an established RAD51 NPF by BRC4, reduction relative to wild-type (RAD51 D184A, D187A NPF): to a large degree | disassembly of an established RAD51 NPF by BRC4 relative to wild-type (RAD51 D184A NPF): moderately reduced | disassembly of an established RAD51 NPF by BRC4 (wild-type RAD51 NPF): able to induce disassembly of a wild-type RAD51 NPF | ability of BRC4 to disrupt RAD51 NPF formation (RAD51 D184A, D187A): severely impaired

B1: 60-nt ssDNA doubly biotinylated (ssDNA)
DNA: ATGGTGTGTGTAGGTTAATGTGAGGAGGAGAGGTGAAGAAGGAGGAGAGAAGAAGGAGGC
binding result (RAD51;BRCA2 TR2 peptide [1]): binds

B2: 50-nt dsDNA doubly biotinylated Cy3 (dsDNA)
DNA 1: CCGACTGACGCTCAACATAGGTACCACACGGCGAGCTCGATGCACCTCCA
DNA 2: TGGAGGTGCATCGAGCTCGCGACAAACCTTCTATGTTGAGCGTCAGTCGG
binding result (RAD51;BRCA2 TR2 peptide [2]): binds
